Reference: patent publication US6340575B1, “Methods and compositions for treating abnormal cell growth related to unwanted guanine nucleotide exchange factor activity” (Onyx Pharmaceuticals, Inc., priority 1997, dated 2002)
Values belong to the molecule of their own block, whether it stands above or below them.

Assays:
[1] = target: T1, 85 kD portion of human Tiam-1 protein (Homo sapiens, UniProt Q13009); experiment: Tiam-1 Rac GEF activity assay (32P-GTP filter binding), 85 kD Tiam-1; assay type: biochemical; settings: 85 kD Tiam-1 truncation; room temperature, 10 minutes
T1 construct: This prote in contained an intact PDZ domain, Dbl-homology (DH) domain and adjacent pleckstrin homology (PH) domain; made in house; host or cells: baculovirus-infected Sf9 (S. frugiperda) cells
T1 sequence (Q13009 837-1591 limits assumed): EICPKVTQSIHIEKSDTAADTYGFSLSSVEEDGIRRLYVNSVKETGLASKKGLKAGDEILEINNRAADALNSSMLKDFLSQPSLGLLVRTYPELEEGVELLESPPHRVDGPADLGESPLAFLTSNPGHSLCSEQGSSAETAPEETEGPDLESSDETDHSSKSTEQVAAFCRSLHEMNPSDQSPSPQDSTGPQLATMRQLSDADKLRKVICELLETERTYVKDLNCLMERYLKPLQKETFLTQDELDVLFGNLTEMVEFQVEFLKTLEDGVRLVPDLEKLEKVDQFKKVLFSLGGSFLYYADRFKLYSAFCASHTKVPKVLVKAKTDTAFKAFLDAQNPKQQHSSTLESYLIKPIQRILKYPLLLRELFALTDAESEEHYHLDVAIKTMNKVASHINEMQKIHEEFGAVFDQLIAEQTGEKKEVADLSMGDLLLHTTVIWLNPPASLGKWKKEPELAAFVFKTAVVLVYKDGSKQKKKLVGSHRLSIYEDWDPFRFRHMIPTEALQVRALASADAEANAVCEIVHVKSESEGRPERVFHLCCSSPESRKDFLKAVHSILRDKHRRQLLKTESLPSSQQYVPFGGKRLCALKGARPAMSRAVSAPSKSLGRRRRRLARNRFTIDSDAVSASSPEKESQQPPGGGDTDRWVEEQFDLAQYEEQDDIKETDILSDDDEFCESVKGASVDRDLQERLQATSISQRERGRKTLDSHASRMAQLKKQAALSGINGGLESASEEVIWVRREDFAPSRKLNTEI
Method: (§1) The GEF activity of the various Tiam-1 constructs described above was determined in the presence and absence of certain compounds. The following assay was utilized. Reactions were conducted at room temperature in Buffer A (20 mM Hepes pH7.3, 50 mM NaCl, 2 mM DTT, 2 mM MgCl2). All proteins and compounds were diluted to 4× their final concentrations in Buffer A (GTPases were diluted in Buffer A containing 1 μM GDP). To dilute Ascorbyl Stearate, Ascorbyl Palmitate, and Stearic Acid, 25 mM ETOH solutions were slowly added to Buffer A while vortexing vigorously. Other lipids were resuspended in aqueous solution with vortexing and bath sonication and then diluted into Buffer A. Reactions were prepared and at time 0, λ-^32P-GTP (DuPont NEN #NEG006H) was added to 4.5 nM, and after 10 minutes reactions were stopped by filtering onto nitrocellulose filters (Millipore #HAWP02500) and immediately washed with wash buffer (25 mM Tris 7.5, 100 mM NaCl, 30 mM MgCl2). Bound λ-^32P-GTP was measured, using standard techniques.
The 85 kD portion of human Tiam-1 protein was produced in insect cells and purified by affinity chromatography, as described above. This prote in contained an intact PDZ domain, Dbl-homology (DH) domain and adjacent pleckstrin homology (PH) domain (FIG. 3). […] Several other lipids were tested to determine the specificity of activation. […] As a control, experiments were run to determine if IP3, IP2, ascorbic acid, stearic acid and ascorbic acid with stearic acid were sufficient to activate the GEF activity of Tiam-1.

Type I Rac-GEF = experiment: Guanine nucleotide exchange activity of Type I Rac-GEF with added PH domain ligand; assay type: biochemical, human; settings: Type I form lacking the Dbl insert region
Method: (§2) Two Rac-GEFs were tested for guanine nucleotide activity. Firstly, a Glu-epitope tag (MEYMPMEIRHD) (SEQ ID NO:32) was engineered onto the carboxy-terminal 423 amino acids of the Rac GEF encoded by EST No. 167059 by introducing the oligos 5′-[…]-3′ SEQ ID NO.5 and the complementary 5′-[…]-3′ SEQ ID NO.6 into the XhoI/EcoRI sites of the clone. The protein encoded by this construct is referred to as Type I Rac-GEF.
(§3) Next, the sequence encoding the insertion in the Dbl homology region, as described in Example 1, was engineered into the open reading frame in the expression plasmid pET21a (Novagen). The protein encoded by this construct is referred to as Type II Rac-GEF. The resulting expression plasmids were introduced into E. coli strain BL21(DE3)pLysS (Novagen), and the epitope tagged protein expression was induced with IPTG. The expressed proteins were purified using a resin with the antibody to the Glu-epitope covalently attached. The resulting proteins were partially pure and were assayed for exchange activity on Rac1, RhoA and Cdc42. See, Hart, in U.S. Ser. No. 60/029,979, filed Nov. 6, 1996 now abandoned.

Type II Rac-GEF = target: T2, Type II Rac-GEF (Homo sapiens, UniProt Q8N5V2); experiment: Guanine nucleotide exchange activity of Type II Rac-GEF with added PH domain ligand; assay type: biochemical; settings: Type II form containing the Dbl insert region
T2 construct: made in house; host or cells: E. coli BL21(DE3)pLysS, plasmid pET21a
T2 sequence (Q8N5V2 264-710 limits assumed): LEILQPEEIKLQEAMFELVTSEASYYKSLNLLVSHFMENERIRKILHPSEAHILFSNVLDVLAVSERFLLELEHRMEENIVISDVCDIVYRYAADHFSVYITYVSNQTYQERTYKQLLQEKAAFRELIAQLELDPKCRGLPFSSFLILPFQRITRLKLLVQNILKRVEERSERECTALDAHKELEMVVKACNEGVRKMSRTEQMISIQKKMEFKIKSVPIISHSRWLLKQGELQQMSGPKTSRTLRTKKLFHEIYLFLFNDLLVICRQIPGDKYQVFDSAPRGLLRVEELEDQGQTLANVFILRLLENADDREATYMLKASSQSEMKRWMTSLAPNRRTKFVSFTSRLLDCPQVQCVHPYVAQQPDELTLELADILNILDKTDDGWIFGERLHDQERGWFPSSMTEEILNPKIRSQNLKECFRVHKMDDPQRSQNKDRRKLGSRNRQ
Method: as §2, §3

135 kD Tiam-1 truncation = target: T3, 135 kD Tiam-1 truncation (Homo sapiens, UniProt Q13009); experiment: Tiam-1 Rac GEF activity assay (32P-GTP filter binding), 135 kD Tiam-1; assay type: biochemical
T3 construct: made in house; host or cells: baculovirus-infected Sf9 (S. frugiperda) cells
T3 sequence (Q13009 402-1591 limits assumed): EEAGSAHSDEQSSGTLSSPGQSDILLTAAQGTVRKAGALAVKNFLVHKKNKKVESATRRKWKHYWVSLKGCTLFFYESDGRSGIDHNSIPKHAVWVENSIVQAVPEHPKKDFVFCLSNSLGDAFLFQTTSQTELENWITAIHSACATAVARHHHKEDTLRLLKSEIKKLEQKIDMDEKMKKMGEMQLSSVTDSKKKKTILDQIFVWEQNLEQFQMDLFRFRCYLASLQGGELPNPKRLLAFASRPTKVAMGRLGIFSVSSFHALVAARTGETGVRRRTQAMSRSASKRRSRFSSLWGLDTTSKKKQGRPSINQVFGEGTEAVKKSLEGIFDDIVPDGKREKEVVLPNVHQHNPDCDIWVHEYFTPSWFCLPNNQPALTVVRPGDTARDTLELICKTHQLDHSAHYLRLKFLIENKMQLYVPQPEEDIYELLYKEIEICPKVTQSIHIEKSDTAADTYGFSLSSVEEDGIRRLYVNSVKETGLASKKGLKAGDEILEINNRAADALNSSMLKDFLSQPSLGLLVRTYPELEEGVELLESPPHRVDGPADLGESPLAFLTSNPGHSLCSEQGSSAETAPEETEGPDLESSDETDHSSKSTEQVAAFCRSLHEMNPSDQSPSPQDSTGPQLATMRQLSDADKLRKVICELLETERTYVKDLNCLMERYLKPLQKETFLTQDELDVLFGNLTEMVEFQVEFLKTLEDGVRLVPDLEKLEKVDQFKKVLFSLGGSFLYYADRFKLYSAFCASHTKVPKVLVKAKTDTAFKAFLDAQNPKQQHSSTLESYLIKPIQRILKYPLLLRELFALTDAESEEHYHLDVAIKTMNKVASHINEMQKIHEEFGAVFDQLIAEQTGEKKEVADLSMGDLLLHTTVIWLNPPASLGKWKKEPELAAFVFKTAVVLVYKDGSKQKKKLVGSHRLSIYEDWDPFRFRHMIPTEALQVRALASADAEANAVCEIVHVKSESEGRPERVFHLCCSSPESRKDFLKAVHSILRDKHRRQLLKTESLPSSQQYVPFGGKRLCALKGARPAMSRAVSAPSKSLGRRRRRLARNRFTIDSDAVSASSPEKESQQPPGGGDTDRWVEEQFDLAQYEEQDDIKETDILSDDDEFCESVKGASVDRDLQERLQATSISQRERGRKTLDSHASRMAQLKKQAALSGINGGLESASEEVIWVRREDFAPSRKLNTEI
Method: as §1
(§4) It has been previously reported that Tiam-1 has GEE activity in the absence absence of lipids. See, Michiels, F., Habets, G. G., Stam, J. C., van der Kammen, R. A., and Collard, J. G. (1995) Nature 375,338-340. Those studies used a miouse version containing additional upstream sequences, including the N-terminal PH domain and the coiled-coil region. […]

[2] = system: Other truncations of Tiam-1, all containing the DH and PH domains; experiment: Tiam-1 Rac GEF activity assay, other truncations containing the DH and PH domains; assay type: biochemical, human; settings: other Tiam-1 truncations containing DH and PH domains
Method: as §1, §4

ΔPH versions of Tiam-1 = experiment: Tiam-1 Rac GEF activity assay, truncations with deleted C-terminal PH domain; assay type: biochemical, human; settings: truncations lacking half of the C-terminal PH domain and the rest of the C-terminus
Method: ΔPH versions of Tiam-1: The oligonucleotides 5′-[…]-3′ SEQ ID NO.24 and 5′-[…]-3′ SEQ ID NO.25 were used as linkers to recircularize Eco47III (4487) and XmaI-digested pAcC4-based expression vectors containing the 135 kD, 106 kD, 85 kD, and 66 kD versions of Tiam-1.
as §1, with “techniques. […]” for “techniques.”

Rac1 = experiment: Exchange activity of Rac GEF on Rac1; assay type: biochemical; settings: partially pure Glu-tagged protein
Method: as §2, §3

RhoA = experiment: Exchange activity of Rac GEF on RhoA; assay type: biochemical; settings: partially pure Glu-tagged protein
Method: as §2, §3

Cdc42 = experiment: Exchange activity of Rac GEF on Cdc42; assay type: biochemical; settings: partially pure Glu-tagged protein
Method: as §2, §3

Molecule: O=P(O)(O)O[C@@H]1[C@H](O)[C@H](O)[C@@H](OP(=O)(O)O)[C@H](OP(=O)(O)O)[C@H]1O [IP3]
stimulation of Tiam-1 GEF activity (nucleotide exchange on Rac 1) [1]: incapable of stimulating GEF activity

Molecule: NP40
stimulation of Tiam-1 GEF activity (nucleotide exchange on Rac 1) [1]: not to significantly stimulate

Molecule: CCCCCCCCCCCCCCCC(=O)OC[C@H](O)[C@H]1OC(=O)C(O)=C1O [Ascorbyl palmitate]
stimulation of Tiam-1 GEF activity (nucleotide exchange on Rac 1) [1]: significantly enhanced

Molecule: phosphatidylserine
stimulation of Tiam-1 GEF activity (nucleotide exchange on Rac 1) [1]: weak effects

Molecule: O=C(O)CCP(CCC(=O)O)CCC(=O)O [TCEP, Tris (2-carboxyethyl)phosphine]
stimulation of Tiam-1 GEF activity (nucleotide exchange on Rac 1) [1]: not to significantly stimulate

Molecule: phosphatidylinositol-3,4,5-trisphosphate
stimulation of Tiam-1 GEF activity (nucleotide exchange on Rac 1) [1]: weak effects

Molecule: CCCCCCCCCCCCCCCCCC(=O)O [stearic acid]
stimulation of Tiam-1 GEF activity (nucleotide exchange on Rac 1) [1]: incapable of stimulating GEF activity

Molecule: phosphatidylinositol-4-phosphate
stimulation of Tiam-1 GEF activity (nucleotide exchange on Rac 1) [1]: significantly enhanced

B1: Rac GEF: Glu-epitope tagged Type I and Type II Rac-GEF proteins expressed in E. coli, partially pure (protein)
chain: MEYMPMEIRHDLEILQPEEIKLQEAMFELVTSEASYYKSLNLLVSHFMENERIRKILHPSEAHILFSNVLDVLAVSERFLLELEHRMEENIVISDVCDIVYRYAADHFSVYITYVSNQTYQERTYKQLLQEKAAFRELIAQLELDPKCRGLPFSSFLILPFQRITRLKLLVQNILKRVEERSERECTALDAHKELEMVVKACNEGVRKMSRTEQMISIQKKMEFKIKSVPIISHSRWLLKQGELQQMSGPKTSRTLRTKKLFHEIYLFLFNDLLVICRQIPGDKYQVFDSAPRGLLRVEELEDQGQTLANVFILRLLENADDREATYMLKASSQSEMKRWMTSLAPNRRTKFVSFTSRLLDCPQVQCVHPYVAQQPDELTLELADILNILDKTDDGWIFGERLHDQERGWFPSSMTEEILNPKIRSQNLKECFRVHKMDDPQRSQNKDRRKLGSRNRQ
exchange activity on Rac1 (Rac1): primarily selective
exchange activity on RhoA (RhoA): displays activity
exchange activity on Cdc42 (Cdc42): displays activity

The next lines start with results.

stimulation of Tiam-1 GEF activity (nucleotide exchange on Rac 1) [1]: not to significantly stimulate
Molecule: O[C@@H](CS)[C@@H](O)CS [DTT]

stimulation of Tiam-1 GEF activity (nucleotide exchange on Rac 1) [1]: little or no effect
Molecule: phosphatidylinositol

stimulation of Tiam-1 GEF activity (nucleotide exchange on Rac 1) [1]: significantly enhanced
Molecule: phosphatidylinositol-4,5-bisphosphate

stimulation of Tiam-1 GEF activity (nucleotide exchange on Rac 1) [1]: not to significantly stimulate
Molecule: TRITON X-100

stimulation of Tiam-1 GEF activity (nucleotide exchange on Rac 1) [1]: not to significantly stimulate
Molecule: CCCCCCCCO[C@@H]1O[C@H](CO)[C@@H](O)[C@H](O)[C@H]1O [nOG]

stimulation of Tiam-1 GEF activity (nucleotide exchange on Rac 1) [1]: incapable of stimulating GEF activity
Molecule: O=C1O[C@H]([C@@H](O)CO)C(O)=C1O [ascorbic acid]

stimulation of Tiam-1 GEF activity (nucleotide exchange on Rac 1) [1]: little or no effect
Molecule: phosphatidyiholine

effect of addition on exchange activity of Type II Rac-GEF (Type II Rac-GEF): strongly stimulated
stimulation of Tiam-1 GEF activity towards Rac (135 kD Tiam-1 truncation): greatly stimulated
Molecule: CCCCCCCCCCCCCCCCCC(=O)OC[C@H](O)[C@H]1OC(=O)C(O)=C1O [ascorbyl stearate]
effect of addition on exchange activity of Type I Rac-GEF (Type I Rac-GEF): unaffected
stimulation of Tiam-1 GEF activity (nucleotide exchange on Rac 1) [1]: stimulated the rate of Tiam-1-mediated nucleotide exchange
stimulation of GEF activity on Rac 1 [2]: stimulated GEF activity
activation of Tiam-1 GEF activity (ΔPH versions of Tiam-1): not activated

stimulation of Tiam-1 GEF activity (nucleotide exchange on Rac 1) [1]: little or no effect
Molecule: phosphatidylglycerol
